What all share (details): time 48-72 hrs, read-out: Activity
The test system of one data set is MCF7. Put plainly: Antiproliferative activity against human MCF7 cells assessed as cell viability at 100 uM incubated for 48 to 72 hrs by MTT assay. The data set is classed as functional. (In general: Tetrazolium assays rely on reduction of a dye to a coloured formazan, in cell work by metabolically active cells.)
The subject of another data set is MDA-MB-231. Put plainly: Antiproliferative activity against human MDA-MB-231 cells assessed as cell viability at 100 uM incubated for 48 to 72 hrs by MTT assay. The format is functional.
The subject of another data set is SJSA-1. Put plainly: Antiproliferative activity against human SJSA-1 cells assessed as cell viability at 100 uM incubated for 48 to 72 hrs by MTT assay. The format is functional.
The next data set concerns HepG2. In words: Antiproliferative activity against human HepG2 cells assessed as cell viability at 100 uM incubated for 48 to 72 hrs by MTT assay. The format is functional.
Data set [1] is described as follows: Cytotoxicity against mouse HT-22 cells assessed as cell viability at 100 uM incubated for 48 to 72 hrs by MTT assay. The data set is classed as toxicity, cell-based.

On to `C[C@H](CC(=O)C[C@@H](C)[C@H]1C[C@H](O)[C@@]2(C)C3=C(C(=O)C[C@]12C)[C@@]1(C)CCC(=O)C(C)(C)[C@@H]1C[C@@H]3O)C(=O)NCCOCCn1cc(CNc2cccc3c2C(=O)N(C2CCC(=O)NC2=O)C3=O)nn1` (some centres undefined), for which the viability at 100 µM with MCF7 came out at 81.8%; with MDA-MB-231 it was 73.1%; in the data set on SJSA-1, 92.2%; in the data set with HepG2, 110%; in data set [1], 99.2%.
In the same order, the values of `C[C@H](CC(=O)C[C@@H](C)[C@H]1C[C@H](O)[C@@]2(C)C3=C(C(=O)C[C@]12C)[C@@]1(C)CCC(=O)C(C)(C)[C@@H]1C[C@@H]3O)C(=O)NCCOCCOCCOCCn1cc(CNc2cccc3c2C(=O)N(C2CCC(=O)NC2=O)C3=O)nn1` (some centres undefined) are 65.5%, 69.7%, 83.4%, 81.3% and 97.2%.
For the compound `Cc1ncsc1-c1ccc([C@H](C)NC(=O)[C@@H]2C[C@@H](O)CN2C(=O)[C@@H](NC(=O)CCCc2cn(CCCNC(=O)[C@H](C)CC(=O)C[C@@H](C)[C@H]3C[C@H](O)[C@@]4(C)C5=C(C(=O)C[C@]34C)[C@@]3(C)CCC(=O)C(C)(C)[C@@H]3C[C@@H]5O)nn2)C(C)(C)C)cc1`, the viability at 100 µM in the data set with MCF7 was 87%; in the data set on MDA-MB-231 it was 99.1%; with SJSA-1 it was 81.5%; with HepG2 it was 90.1%; in data set [1], 89.1%.
In the same order, the values of `Cc1ncsc1-c1ccc([C@H](C)NC(=O)[C@@H]2C[C@@H](O)CN2C(=O)[C@@H](NC(=O)CCCc2cn(CCOCCNC(=O)[C@H](C)CC(=O)C[C@@H](C)[C@H]3C[C@H](O)[C@@]4(C)C5=C(C(=O)C[C@]34C)[C@@]3(C)CCC(=O)C(C)(C)[C@@H]3C[C@@H]5O)nn2)C(C)(C)C)cc1` are 66.9%, 41.8%, 58.4%, 105% and 97%.
With `Cc1ncsc1-c1ccc([C@H](C)NC(=O)[C@@H]2C[C@@H](O)CN2C(=O)[C@@H](NC(=O)CCCCc2cn(CCOCCOCCNC(=O)[C@H](C)CC(=O)C[C@@H](C)[C@H]3C[C@H](O)[C@@]4(C)C5=C(C(=O)C[C@]34C)[C@@]3(C)CCC(=O)C(C)(C)[C@@H]3C[C@@H]5O)nn2)C(C)(C)C)cc1`, the viability at 100 µM was 41.4% in the data set on MCF7; 31.6% with MDA-MB-231; 77.1% in the data set on SJSA-1; 86.8% in the data set with HepG2; 95.9% in data set [1].
In the same order, the values of `C[C@H](CC(=O)C[C@@H](C)[C@H]1C[C@H](O)[C@@]2(C)C3=C(C(=O)C[C@]12C)[C@@]1(C)CCC(=O)C(C)(C)[C@@H]1C[C@@H]3O)C(=O)NCCCn1cc(CNc2cccc3c2C(=O)N(C2CCC(=O)NC2=O)C3=O)nn1` (some centres undefined) are 70.5%, 56.2%, 75.7%, 116% and 94.9%.
Turning to `Cc1ncsc1-c1ccc([C@H](C)NC(=O)[C@@H]2C[C@@H](O)CN2C(=O)[C@@H](NC(=O)CCCCc2cn(CCCNC(=O)[C@H](C)CC(=O)C[C@@H](C)[C@H]3C[C@H](O)[C@@]4(C)C5=C(C(=O)C[C@]34C)[C@@]3(C)CCC(=O)C(C)(C)[C@@H]3C[C@@H]5O)nn2)C(C)(C)C)cc1`, the viability at 100 µM in the data set with MCF7 was found to be 57.9%; in the data set with MDA-MB-231 it was 97.5%; in the data set on SJSA-1, 84.6%; in the data set on HepG2, 96.5%; in data set [1], 102%.
Turning to `C[C@H](CC(=O)C[C@@H](C)[C@H]1C[C@H](O)[C@@]2(C)C3=C(C(=O)C[C@]12C)[C@@]1(C)CCC(=O)C(C)(C)[C@@H]1C[C@@H]3O)C(=O)NCc1cn(CCOCCOCCOCCOCCNc2cccc3c2C(=O)N(C2CCC(=O)NC2=O)C3=O)nn1` (some centres undefined), the viability at 100 µM in the data set on MCF7 came out at 57.2%; in the data set with MDA-MB-231 it was 57.9%; in the data set with SJSA-1, 95.9%; in the data set on HepG2, 125%; in data set [1], 98.3%.
In the case of `C[C@H](CC(=O)C[C@@H](C)[C@H]1C[C@H](O)[C@@]2(C)C3=C(C(=O)C[C@]12C)[C@@]1(C)CCC(=O)C(C)(C)[C@@H]1C[C@@H]3O)C(=O)NCc1cn(CCOCCOCCNc2cccc3c2C(=O)N(C2CCC(=O)NC2=O)C3=O)nn1` (some centres undefined), the viability at 100 µM is 71.2% with MCF7; 63.1% in the data set with MDA-MB-231; 60.6% in the data set on SJSA-1; 88.8% in the data set on HepG2; 78.2% in data set [1].
On the same counts, the results for `Cc1ncsc1-c1ccc([C@H](C)NC(=O)[C@@H]2C[C@@H](O)CN2C(=O)[C@@H](NC(=O)CCCc2cn(CCOCCOCCOCCNC(=O)[C@H](C)CC(=O)C[C@@H](C)[C@H]3C[C@H](O)[C@@]4(C)C5=C(C(=O)C[C@]34C)[C@@]3(C)CCC(=O)C(C)(C)[C@@H]3C[C@@H]5O)nn2)C(C)(C)C)cc1` are 42.7%, 25.5%, 61.8%, 89.2% and 90.2%.
On to `COc1cccc2c1C(=O)c1c(O)c3c(c(O)c1C2=O)C[C@@](O)(C(=O)CO)C[C@@H]3O[C@H]1C[C@H](N)[C@H](O)[C@H](C)O1` [DOXORUBICIN], for which the viability at 100 µM was 57.5% in the data set with MCF7, 39.4% in the data set on MDA-MB-231, 56.2% with SJSA-1 and 64.3% in the data set with HepG2.
For `C[C@H](CC(=O)C[C@@H](C)[C@H]1C[C@H](O)[C@@]2(C)C3=C(C(=O)C[C@]12C)[C@@]1(C)CCC(=O)C(C)(C)[C@@H]1C[C@@H]3O)C(=O)NCCOCCOCCn1cc(CNc2cccc3c2C(=O)N(C2CCC(=O)NC2=O)C3=O)nn1` (some centres undefined), the viability at 100 µM with MCF7 is 76.8%; in the data set on MDA-MB-231 it was 71.6%; in the data set on SJSA-1 it was 85.9%; in the data set on HepG2, 105%; in data set [1], 98.7%.
On the same counts, the results for `C[C@H](CC(=O)C[C@@H](C)[C@H]1C[C@H](O)[C@@]2(C)C3=C(C(=O)C[C@]12C)[C@@]1(C)CCC(=O)C(C)(C)[C@@H]1C[C@@H]3O)C(=O)NCCOCCOCCOCCOCCn1cc(CNc2cccc3c2C(=O)N(C2CCC(=O)NC2=O)C3=O)nn1` (some centres undefined) are 75.9%, 90.2%, 83%, 130% and 91.9%.
In the same order, the values of `Cc1ncsc1-c1ccc([C@H](C)NC(=O)[C@@H]2C[C@@H](O)CN2C(=O)[C@@H](NC(=O)CCCCc2cn(CCOCCNC(=O)[C@H](C)CC(=O)C[C@@H](C)[C@H]3C[C@H](O)[C@@]4(C)C5=C(C(=O)C[C@]34C)[C@@]3(C)CCC(=O)C(C)(C)[C@@H]3C[C@@H]5O)nn2)C(C)(C)C)cc1` are 81.9%, 70.8%, 88.2%, 94% and 97%.
Turning to `C[C@H](CC(=O)C[C@@H](C)[C@H]1C[C@H](O)[C@@]2(C)C3=C(C(=O)C[C@]12C)[C@@]1(C)CCC(=O)C(C)(C)[C@@H]1C[C@@H]3O)C(=O)NCc1cn(CCOCCOCCOCCNc2cccc3c2C(=O)N(C2CCC(=O)NC2=O)C3=O)nn1` (some centres undefined), the viability at 100 µM in the data set with MCF7 was found to be 83.4%; with MDA-MB-231 it was 74.7%; with SJSA-1, 67%; in the data set on HepG2, 91%; in data set [1] it was 78.2%.
In the same order, the values of `Cc1ncsc1-c1ccc([C@H](C)NC(=O)[C@@H]2C[C@@H](O)CN2C(=O)[C@@H](NC(=O)CCCc2cn(CCOCCOCCOCCOCCNC(=O)[C@H](C)CC(=O)C[C@@H](C)[C@H]3C[C@H](O)[C@@]4(C)C5=C(C(=O)C[C@]34C)[C@@]3(C)CCC(=O)C(C)(C)[C@@H]3C[C@@H]5O)nn2)C(C)(C)C)cc1` are 30.1%, 28.7%, 61.7%, 94.8% and 96.9%.
Consider `C[C@H](CC(=O)C[C@@H](C)[C@H]1C[C@H](O)[C@@]2(C)C3=C(C(=O)C[C@]12C)[C@@]1(C)CCC(=O)C(C)(C)[C@@H]1C[C@@H]3O)C(=O)NCc1cn(CCOCCNc2cccc3c2C(=O)N(C2CCC(=O)NC2=O)C3=O)nn1` (some centres undefined), for which the viability at 100 µM with MCF7 was found to be 60.7%; in the data set with MDA-MB-231 it was 48.6%; in the data set with SJSA-1 it was 88.2%; in the data set with HepG2 it was 85.8%; in data set [1], 83.2%.
For the compound `Cc1ncsc1-c1ccc([C@H](C)NC(=O)[C@@H]2C[C@@H](O)CN2C(=O)[C@@H](NC(=O)CCCc2cn(CCOCCOCCNC(=O)[C@H](C)CC(=O)C[C@@H](C)[C@H]3C[C@H](O)[C@@]4(C)C5=C(C(=O)C[C@]34C)[C@@]3(C)CCC(=O)C(C)(C)[C@@H]3C[C@@H]5O)nn2)C(C)(C)C)cc1`, the viability at 100 µM in the data set with MCF7 was determined as 40.8%; with MDA-MB-231, 37.7%; in the data set on SJSA-1, 74.1%; with HepG2 it was 84.6%; in data set [1] it was 101%.
On the same counts, the results for `C[C@H](CC(=O)C[C@@H](C)[C@H]1C[C@H](O)[C@@]2(C)C3=C(C(=O)C[C@]12C)[C@@]1(C)CCC(=O)C(C)(C)[C@@H]1C[C@@H]3O)C(=O)NCc1cn(CCCNc2cccc3c2C(=O)N(C2CCC(=O)NC2=O)C3=O)nn1` (some centres undefined) are 65.9%, 73.8%, 79.6%, 58.4% and 96.7%.

The record behind these values is ChEMBL document CHEMBL5500349, “Discovery of ganoderic acid A (GAA) PROTACs as MDM2 protein degraders for the treatment of breast cancer” (Eur J Med Chem, 2024).
